Data taken from article PMC10613275 (Scientific Reports, 2023).
Where two headings read alike, the source gives them in different places. Marks after values point to notes of the source that are not given here.

How the values were obtained:
[1] = system: androgen receptor; assay: Androgenic activity, transactivation luciferase assay in MDA-kb2; details: 1 nm–100 µM, MDA-kb2
Text: Results were expressed as fold induction (FI), i.e. fold increase compared to vehicle control. According to EPA[28], FI of positive control should be above 4 to meet the performance standard.

[2] = system: HeLa cells; assay: γH2AX biomarker-based genotoxicity assay, HeLa; assay type: cell-based, human; details: for MoA (mean fluorescence values over area of the nuclei): PC 30 μM
Method: (§1) Briefly, HeLa and CHO-K1 cells were seeded at a concentration of 1 × 10^5 cells/ml into the 96-well plates. CHO-K1 cells were used for comparison with HPRT test. HeLa cells were recommended by the manufacturer of the kit. After 24 h, cells were rinsed with PBS and cultivation medium (“Cell lines” Section) without ATB, with a reduced content of FBS (5%) was added. 30 µM valinomycin (in DMSO) was used as a positive control Samples were applied in the presence of non-toxic sample concentrations, i.e. 100 µM either with or without S9 mix. […] Cells were photographed using a fluorescence microscope (Olympus IX83); filters: DAPI (500 ms) and Cy3 (500 ms). Bioimage analysis in ImageJ software was performed as described previously.

[3] = system: CHO-K1 cells; assay type: cell-based, Chinese hamster; details: for MoA (mean fluorescence values over area of the nuclei): lilial 100 µM, PC 30 μM
Method: as §1

[4] = system: NF-κB signal pathway; assay: NF-κB signal pathway activation, luciferase reporter in transfected HEK293; assay type: cell-based, human; details: HEK293, 100 µM (Table 1), 5 h
Text: […]. HEK293 cells were transiently transfected with reporter plasmid pGL4.32 (luc2P/NF-κB-RE/Hygro, Promega Corporation, Madison, Wisconsin, USA) or pGL4.37 (luc2P/NRF2-ARE/Hygro) using FuGENE (Promega Corporation). Plasmid pEGFP-C1 carrying the gene for green fluorescent protein (GFP) was co-transfected with the reporter plasmids as a normalization plasmid enabling normalization of the signal to transfection level. […] To test the activation of NRF2-ARE pathway, tert-butyl hydroquinone (TBHQ, in the range from 4 to 63 µM) as a positive control or samples (50 µM) were incubated with the cells for 18 h. The fluorescence (488/513 nm) was determined using SpectraMax i3x Multi-Mode Microplate Reader (Molecular Devices, San Jose, California, USA). Subsequent quantification of luciferase activity was performed using the Bright-Glo™ Luciferase Assay System (Promega Corporation) according to the manufacturer’s instructions.

[5] = system: NRF2-ARE signal pathway; assay: NRF2-ARE signal pathway activation, luciferase reporter in transfected HEK293; assay type: cell-based, human; details: HEK293, 100 µM (Table 1), 18 h
Text: […]. HEK293 cells were transiently transfected with reporter plasmid pGL4.32 (luc2P/NF-κB-RE/Hygro, Promega Corporation, Madison, Wisconsin, USA) or pGL4.37 (luc2P/NRF2-ARE/Hygro) using FuGENE (Promega Corporation). Plasmid pEGFP-C1 carrying the gene for green fluorescent protein (GFP) was co-transfected with the reporter plasmids as a normalization plasmid enabling normalization of the signal to transfection level. To test the activation of NF-κB pathway, TNFα (in the range from 13 to 200 pg/ml) as a positive control or samples (50 µM) were incubated with the cells for 5 h. […] The fluorescence (488/513 nm) was determined using SpectraMax i3x Multi-Mode Microplate Reader (Molecular Devices, San Jose, California, USA). Subsequent quantification of luciferase activity was performed using the Bright-Glo™ Luciferase Assay System (Promega Corporation) according to the manufacturer’s instructions.

[6] = Metabolic activation with rat liver S9, GC/HRMS; assay type: in vitro ADME; details: 37 °C, 1 h; to lysmerylic acid and p-tert-butylbenzoic acid as major metabolites
Text: Metabolic activation was verified using GC/HRMS as described above.

[7] = system: CHO-K1 cells (hprt gene); assay: CHO/HPRT mutation assay; assay type: cell-based, Chinese hamster; details: lilial 500 µM, 3MC 2 µg/ml
[8] = system: complexes I and II of the electron transport chain; details: cited from earlier work
[9] = system: HaCaT cells; details: 10 µM ref 2; cited from earlier work
[10] = system: Caco-2 cells; details: Caco-2, 100 µM ref 2; cited from earlier work
[11] = system: NIH3T3 cells; details: NIH3T3 ref 2; cited from earlier work
[12] = system: Hek293 cells; details: Hek293 ref 2; cited from earlier work
[13] = system: MCF-7 human breast cancer cells; details: cited from earlier work
[14] = set-up: method as in PMID 32461162; details: cited from earlier work
[15] = system: NRF2 protein in THP-1 cells; details: 650 µM, 5 h ref 15; cited from earlier work
[16] = system: ARE-Nrf2 luciferase (KeratinoSens); set-up: method as in PMID 23576290; details: cited from earlier work
[17] = set-up: method as in earlier work; details: human volunteers, cited from earlier work
[18] = system: Chinese hamster lung and human colonic epithelial cells; set-up: method as in PMID 32461162, PMID 24239523; details: in vitro ref 3, 5; cited from earlier work
[19] = system: rats; details: rat, in vivo; cited from earlier work
[20] = system: fertilized eggs of white turkey (Meleagris gallopavo); details: 10 mg/egg ref 6; cited from earlier work
[21] = system: CHO-K1 cells; assay: Cytotoxicity, cell viability (resazurin assay), CHO-K1, with or without S9 mix; details: 1 day

CC(C=O)Cc1ccc(C(C)(C)C)cc1 (stereo not drawn) [Lilial, 3-(4-(tert-butyl)phenyl)-2-methylpropanal]
Androgenic activity (agonist) result [1]: Non active up to 100 µM | Androgenic activity (agonist) result ([1]; listed as lilial): no activity was detected | Genotoxicity result ([2]; 100 µM): Non genotoxic | MoA (mean fluorescence values over area of the nuclei) ([2]; 4h_S9, lilial 100 µM): 0.20 | MoA (mean fluorescence values over area of the nuclei) ([2]; 4 h, without S9, lilial 100 µM): 0.11 | MoA (mean fluorescence values over area of the nuclei) ([2]; 24 h, lilial 100 µM): 0.03 | Genotoxicity result ([3]; CHO-K1, 100 µM): Inconclusive | MoA (mean fluorescence values over area of the nuclei) ([3]; CHO-K1, 4h_S9): 1.10* | MoA (mean fluorescence values over area of the nuclei) ([3]; CHO-K1, 4 h, without S9): 0.52 | MoA (mean fluorescence values over area of the nuclei) ([3]; CHO-K1, 24 h): 0.99 | NF-κB signal pathway activation result [4]: Non activator | NF-κB signal pathway activation result ([4]; listed as lilial): neither the NF-kB (Fig. 7) nor NRF2 (Fig. 8) signalling pathway was activated | NRF2-ARE signal pathway activation result [5]: Non activator | NRF2-ARE signal pathway activation result ([5]; listed as lilial): neither the NF-kB (Fig. 7) nor NRF2 (Fig. 8) signalling pathway was activated | Metabolism in presence of Arochlor-induced rat liver S9 fractions [6]: almost completely metabolised | MF (/106) mutation frequency ([7]; Table 4, With S9): 6 ± 5 /106 | NMC (number of mutant colonies) ([7]; Table 4, Without S9): 0 | Effect on complexes I and II of the electron transport chain [8]: inhibit complexes I and II | Decrease in cell viability [9]: 65% | Decrease in cell viability [10]: 23% | Effect on cell viability [11]: no negative effect | Effect on cell viability [12]: no negative effect | Estrogenic activity (expression of transfected reporter and endogenous pS2 gene) ([13]; MCF7 in vitro ref 8): very weak estrogenic activity | Cell doublings ([13]; lilial 100 µM, estrogen 10 nM, unaffected control 1.8 doublings ref 8): 2.4 doublings | Dermal absorption value ([14]; hydroalcoholic-based fragrances and deodorant/antiperspirant products ref 3): 13.5% | Dermal absorption value ([14]; oil-in-water-based products ref 3): 8.9% | Dermal absorption value ([14]; water-in-oil-based products ref 3): 10.5% | Level of NRF2 protein [15]: significant increase | KeratinoSens assay result [16]: negative | Mean of applied dose detected in urine ([17]; dermal 6 h, urine within 24 h ref 4): 1.4% | Topical application recovery ([17]; dermal 6 h ref 4): 71 ± 10% | Mutagenicity in mammalian cell gene mutation assay [18]: not mutagenic | Oral dose that reduced body weight, gave clinical and systemic toxicity [19]: ≥ 50 mg/kg/day | DNA strand breaks in the comet assay [20]: 2.0 fold | Toxic concentration ([21]; 5 nm–500 µM, without S9): ≥ 250 µM | Cytotoxicity result after metabolization by the S9 mix ([21]; up to 500 µM, with S9 mix): no cytotoxicity
